Activity, solubility and inhibition data for five compounds are collected here from ChEMBL document CHEMBL4219200, “Beta-sitosterol and its derivatives repress lipopolysaccharide/d-galactosamine-induced acute hepatic injury by inhibiting the oxidation and inflammation in mice” (Bioorg Med Chem Lett, 2018).

Calls of active or inactive are those of the source. The calls are words filed in the database; no cut-off is given here. Bounds are passed on as bounds.

In data set [1] the test system is Mus musculus. Kind of data set: Hepatoprotective activity against lipopolysaccharide/D-galactosamine-induced acute hepatic injury in mouse assessed as increase in survival rate at 50 mg/kg up to 24 hrs. The class given is functional, organism-based.
A short description of data set [2]: Solubility of the compound in water assessed as volume of solvent required to dissolve 1 g of compound. It counts as physicochemical. Particulars: buffer.
The test system of data set [3] is Mus musculus. Kind of data set: Hepatoprotective activity against lipopolysaccharide/D-galactosamine-induced acute hepatic injury in mouse assessed as increase in HO1 protein level in liver at 50 mg/kg by Western blot analysis. It counts as functional, organism-based. For orientation: In western blotting, separated proteins are transferred to a membrane and probed.

Data set [4] deals with Mus musculus. Kind of data set: Hepatoprotective activity against lipopolysaccharide/D-galactosamine-induced acute hepatic injury in mouse assessed as increase in Nrf2 protein level in liver at 50 mg/kg by Western blot analysis. The class given is functional, organism-based.
Data set [5] has as its system Mus musculus. Kind of data set: Hepatoprotective activity against lipopolysaccharide/D-galactosamine-induced acute hepatic injury in mouse assessed as inhibition of LPS/GalN-induced increase in IL-6 level in serum at 12.5 to 50 mg/kg. The class given is functional, organism-based.
In data set [6] the test system is Mus musculus. Kind of data set: Hepatoprotective activity against lipopolysaccharide/D-galactosamine-induced acute hepatic injury in mouse assessed as inhibition of liver cell necrosis at 50 mg/kg up to 24 hrs by microscopic method. It counts as functional, organism-based.
The subject of data set [7] is Mus musculus. Kind of data set: Hepatoprotective activity against lipopolysaccharide/D-galactosamine-induced acute hepatic injury in mouse assessed as decrease in NF-kB protein level in liver at 12.5 to 50 mg/kg by Western blot analysis. The class given is functional, organism-based.
The subject of data set [8] is Mus musculus. Briefly: Hepatoprotective activity against lipopolysaccharide/D-galactosamine-induced acute hepatic injury in mouse assessed as reduction in serum AST level at 50 mg/kg. The class given is functional, organism-based.
In data set [9] the test system is Mus musculus. Briefly: Hepatoprotective activity against lipopolysaccharide/D-galactosamine-induced acute hepatic injury in mouse assessed as inhibition of LPS/GalN-induced increase in MDA level in liver at 50 mg/kg. The class given is functional, organism-based.
Data set [10] concerns Mus musculus. Briefly: Hepatoprotective activity against lipopolysaccharide/D-galactosamine-induced acute hepatic injury in mouse assessed as inhibition of LPS/GalN-induced increase in TNFalpha level in serum at 12.5 to 50 mg/kg. The class given is functional, organism-based.
The subject of data set [11] is Mus musculus. Kind of data set: Hepatoprotective activity against lipopolysaccharide/D-galactosamine-induced acute hepatic injury in mouse assessed as increase in Nrf2 mRNA level in liver at 12.5 to 50 mg/kg by RT-PCR analysis. The class given is functional, organism-based.
Data set [12] deals with Mus musculus. Kind of data set: Hepatoprotective activity against lipopolysaccharide/D-galactosamine-induced acute hepatic injury in mouse assessed as inhibition of NFkB mRNA level in liver at 12.5 to 50 mg/kg by RT-PCR analysis. The class given is functional, organism-based.
Data set [13] deals with Mus musculus. Briefly: Hepatoprotective activity against lipopolysaccharide/D-galactosamine-induced acute hepatic injury in mouse assessed as restoration of hepatic lobular structure at 50 mg/kg up to 24 hrs by microscopic method. It counts as functional, organism-based.
Data set [14] deals with Mus musculus. Briefly: Hepatoprotective activity against lipopolysaccharide/D-galactosamine-induced acute hepatic injury in mouse assessed as inhibition of LPS/GalN-induced increase in TNFalpha level in liver at 12.5 to 50 mg/kg. It counts as functional, organism-based.
In data set [15] the test system is Mus musculus. Kind of data set: Hepatoprotective activity against lipopolysaccharide/D-galactosamine-induced acute hepatic injury in mouse assessed as inhibition of TNFalpha mRNA level in liver at 12.5 to 50 mg/kg by RT-PCR analysis. The class given is functional, organism-based.
Data set [16] relates to Mus musculus. Briefly: Hepatoprotective activity against lipopolysaccharide/D-galactosamine-induced acute hepatic injury in mouse assessed as increase in IkB protein level in liver at 50 mg/kg by Western blot analysis. It counts as functional, organism-based.
Data set [17] deals with Mus musculus. Kind of data set: Hepatoprotective activity against lipopolysaccharide/D-galactosamine-induced acute hepatic injury in mouse assessed as inhibition of Il-1beta mRNA level in liver at 12.5 to 50 mg/kg by RT-PCR analysis. It counts as functional, organism-based.
For data set [18], the system named is Mus musculus. Kind of data set: Hepatoprotective activity against lipopolysaccharide/D-galactosamine-induced acute hepatic injury in mouse assessed as inhibition of LPS/GalN-induced increase in IL-1beta level in serum at 12.5 to 50 mg/kg. The class given is functional, organism-based.
Data set [19] relates to Mus musculus. Kind of data set: Hepatoprotective activity against lipopolysaccharide/D-galactosamine-induced acute hepatic injury in mouse assessed as inhibition of LPS/GalN-induced increase in IL-1beta level in liver at 12.5 to 50 mg/kg. The class given is functional, organism-based.
Data set [20] has as its system Mus musculus. Briefly: Hepatoprotective activity against lipopolysaccharide/D-galactosamine-induced acute hepatic injury in mouse assessed as inhibition of LPS/GalN-induced decrease in SOD level in liver at 50 mg/kg. The class given is functional, organism-based.
The test system of data set [21] is Mus musculus. Briefly: Hepatoprotective activity against lipopolysaccharide/D-galactosamine-induced acute hepatic injury in mouse assessed as reduction in serum ALT level at 50 mg/kg. It counts as functional, organism-based.
Data set [22] concerns Mus musculus. Briefly: Hepatoprotective activity against lipopolysaccharide/D-galactosamine-induced acute hepatic injury in mouse assessed as inhibition of LPS/GalN-induced decrease in CAT level in liver at 50 mg/kg. It counts as functional, organism-based.
The subject of data set [23] is Mus musculus. Kind of data set: Hepatoprotective activity against lipopolysaccharide/D-galactosamine-induced acute hepatic injury in mouse assessed as inhibition of LPS/GalN-induced decrease in GSH level in liver at 50 mg/kg. The class given is functional, organism-based.
Data set [24] deals with Mus musculus. Kind of data set: Hepatoprotective activity against lipopolysaccharide/D-galactosamine-induced acute hepatic injury in mouse assessed as decrease in TLR4 protein level in liver at 12.5 to 50 mg/kg by Western blot analysis. The class given is functional, organism-based.
Data set [25] deals with L02. Kind of data set: Cytotoxicity against human L02 cells up to 10 uM by MTT assay. The class given is cell-based. A general note: Tetrazolium assays rely on reduction of a dye to a coloured formazan, in cell work by metabolically active cells.
Data set [26] has as its system Mus musculus. Kind of data set: Hepatoprotective activity against lipopolysaccharide/D-galactosamine-induced acute hepatic injury in mouse assessed as inhibition of LPS/GalN-induced increase in IL-6 level in liver at 12.5 to 50 mg/kg. It counts as functional, organism-based.

`CC[C@H](CC[C@@H](C)[C@H]1CC[C@H]2[C@@H]3CC=C4C[C@@H](O)CC[C@]4(C)[C@H]3CC[C@]12C)C(C)C` [BETA-SITOSTEROL]: the result in data set [1] was Active. Moreover, in data set [2], the solubility result is “<= 10000 ml”.

In the case of `CC[C@H](CC[C@@H](C)[C@H]1CC[C@H]2[C@@H]3CC=C4C[C@@H](OC(=O)c5ccc6ccccc6c5)CC[C@]4(C)[C@H]3CC[C@]12C)C(C)C`, the result in [3], in data set [4], in [7], in [8], in data set [11] and in [13] was Active. Besides, the outcome in data set [1], in [16], in data set [21] and in data set [24] was Active. For the same compound, the inhibition result in data set [5], in [6], in data set [9], in data set [10], in [12] and in data set [14] was “Active” in each case. For the same compound, the inhibition entry in [15], in data set [17], in data set [18], in data set [19], in [20] and in [22] was “Active” in each case. In addition, the inhibition entry in data set [23] and in data set [26] was “Active” in each case. In addition, in data set [2], the solubility lay in the range of 1000 to 10000 mL. Besides, in [25], the Activity result was “Non-Toxic”.

With `CC[C@H](CC[C@@H](C)[C@H]1CC[C@H]2[C@@H]3CC=C4C[C@@H](OC(=O)c5ccccc5O)CC[C@]4(C)[C@H]3CC[C@]12C)C(C)C`, in data set [1], the outcome was Active. The solubility in [2] was 1000 to 10000 mL. In addition, in [25], the Activity entry is “Non-Toxic”.

As for `C/C=C/C=C/C(=O)O[C@H]1CC[C@@]2(C)C(=CC[C@H]3[C@@H]4CC[C@H]([C@H](C)CC[C@@H](CC)C(C)C)[C@@]4(C)CC[C@@H]32)C1`, the outcome in data set [1] was Active. The solubility in data set [2] lay within 1000 to 10000 mL. In [25], the Activity entry is “Non-Toxic”.

For the compound `CC[C@H](CC[C@@H](C)[C@H]1CC[C@H]2[C@@H]3CC=C4C[C@@H](OC(=O)c5ccco5)CC[C@]4(C)[C@H]3CC[C@]12C)C(C)C`, the outcome in [1] was Active. In addition, the solubility in data set [2] lay within 1000 to 10000 mL. The Activity result in data set [25] is given as “Non-Toxic”.
